Reference: PubChem BioAssay AID2060510 (Molecular Pharmacology Branch, DTP, NCI, 2025)

Test system: 439559-082-T-J2-PDC spheroids viability
Experiment: Anticancer human tumor 439559-082-T-J2-PDC patient-derived colon adenocarcinoma cell line growth inhibition [GQUAD]
Details: for IC50: curve of first compound; for viability, T/C: stronger effect = lower value
Procedure, shortened: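 Multi-cell-type spheroids of tumor cells with HUVEC and mesenchymal stem cells, treated with drug combinations. Concentrations descend in half-log steps from near clinical Cmax, or from 10 microM where Cmax is unknown; viability read-out.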

[1] = second compound 0.0316 µM, first compound 0.0316 µM
[2] = second compound 0.0316 µM, first compound 0.1 µM
[3] = second compound 0.0316 µM, first compound 0.316 µM
[4] = second compound 0.0316 µM, first compound 1 µM
[5] = second compound 0.0316 µM, first compound 3.16 µM
[6] = second compound 0.0316 µM, first compound 10 µM
[7] = second compound 0.1 µM, first compound 0.0316 µM
[8] = second compound 0.1 µM, first compound 0.1 µM
[9] = second compound 0.1 µM, first compound 0.316 µM
[10] = second compound 0.1 µM, first compound 1 µM
[11] = second compound 0.1 µM, first compound 3.16 µM
[12] = second compound 0.1 µM, first compound 10 µM
[13] = second compound 0.316 µM, first compound 0.0316 µM
[14] = second compound 0.316 µM, first compound 0.1 µM
[15] = second compound 0.316 µM, first compound 0.316 µM
[16] = second compound 0.316 µM, first compound 1 µM
[17] = second compound 0.316 µM, first compound 3.16 µM
[18] = second compound 0.316 µM, first compound 10 µM
[19] = second compound 1 µM, first compound 0.0316 µM
[20] = second compound 1 µM, first compound 0.1 µM
[21] = second compound 1 µM, first compound 0.316 µM
[22] = second compound 1 µM, first compound 1 µM
[23] = second compound 1 µM, first compound 3.16 µM
[24] = second compound 1 µM, first compound 10 µM
[25] = second compound 3.16 µM, first compound 0.0316 µM
[26] = second compound 3.16 µM, first compound 0.1 µM
[27] = second compound 3.16 µM, first compound 0.316 µM
[28] = second compound 3.16 µM, first compound 1 µM
[29] = second compound 3.16 µM, first compound 3.16 µM
[30] = second compound 3.16 µM, first compound 10 µM
[31] = second compound 10 µM, first compound 0.0316 µM
[32] = second compound 10 µM, first compound 0.1 µM
[33] = second compound 10 µM, first compound 0.316 µM
[34] = second compound 10 µM, first compound 1 µM
[35] = second compound 10 µM, first compound 3.16 µM
[36] = second compound 10 µM, first compound 10 µM
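Note: spheroids exposed to the agents for 7 days before readout.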
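Throughout, for viability, T/C: percent of luminescence signal in DMSO vehicle wells taken as 100% viability.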

`Cc1cccc(N(C)C(=O)C2C(O)CCN2c2nc(C)cc(C(F)(F)F)c2C#N)c1` (stereo unspecified) + CN(C)c1ccc(Nc2c3ccc(NC(=O)CCN4CCCC4)cc3nc3cc(NC(=O)CCN4CCCC4)ccc23)cc1 was tested, and the IC50 (second compound 0.0316 µM) was > 10 µM, the IC50 (second compound 0.1 µM) was > 10 µM and the IC50 (second compound 0.316 µM) was > 10 µM. For the same compound, the IC50 (second compound 1 µM) was > 10 µM, the IC50 (second compound 3.16 µM) was > 10 µM and the IC50 (second compound 10 µM) was > 10 µM. The viability, T/C [1] was 102%, the viability, T/C [2] was 87.8% and the viability, T/C [3] was 97.3%. The viability, T/C [4] was 89.8%, the viability, T/C [5] was 94.5% and the viability, T/C [6] was 99.5%. The viability, T/C [7] was 109%, the viability, T/C [8] was 100% and the viability, T/C [9] was 94.6%. It also gave a viability, T/C [10] of 92.1%, a viability, T/C [11] of 95.5% and a viability, T/C [12] of 109%. For the same compound, the viability, T/C [13] was 84.5%, the viability, T/C [14] was 98.7% and the viability, T/C [15] was 101%. For the same compound, the viability, T/C [16] was 96.7%, the viability, T/C [17] was 95.2% and the viability, T/C [18] was 94.3%. For the same compound, the viability, T/C [19] was 96.4%, the viability, T/C [20] was 102% and the viability, T/C [21] was 97.5%. It also gave a viability, T/C [22] of 99.3%, a viability, T/C [23] of 96.6% and a viability, T/C [24] of 93.9%. It also gave a viability, T/C [25] of 112%, a viability, T/C [26] of 93.5% and a viability, T/C [27] of 101%. The viability, T/C [28] was 89.7%, the viability, T/C [29] was 107% and the viability, T/C [30] was 92.1%. For the same compound, the viability, T/C [31] was 93.6%, the viability, T/C [32] was 87.1% and the viability, T/C [33] was 100%. It also gave a viability, T/C [34] of 102%, a viability, T/C [35] of 94% and a viability, T/C [36] of 91.8%.
For `Cc1cccc(N(C)C(=O)C2C(O)CCN2c2nc(C)cc(C(F)(F)F)c2C#N)c1` (stereo unspecified) + Cc1[nH]c2ccc(F)cc2c1-c1nc2c3cccnc3c3ncccc3c2[nH]1, the IC50 (second compound 0.0316 µM) was > 10 µM, the IC50 (second compound 0.1 µM) was > 10 µM and the IC50 (second compound 0.316 µM) was > 10 µM. The IC50 (second compound 1 µM) was > 10 µM, the IC50 (second compound 3.16 µM) was > 10 µM and the IC50 (second compound 10 µM) was > 10 µM. It also gave a viability, T/C [1] of 98.7%, a viability, T/C [2] of 106% and a viability, T/C [3] of 99.8%. The viability, T/C [4] was 103%, the viability, T/C [5] was 92.8% and the viability, T/C [6] was 95.9%. It also gave a viability, T/C [7] of 106%, a viability, T/C [8] of 91.6% and a viability, T/C [9] of 99.8%. For the same compound, the viability, T/C [10] was 96.3%, the viability, T/C [11] was 100% and the viability, T/C [12] was 92.6%. The viability, T/C [13] was 98.6%, the viability, T/C [14] was 101% and the viability, T/C [15] was 92.7%. The viability, T/C [16] was 108%, the viability, T/C [17] was 96.2% and the viability, T/C [18] was 83.3%. It also gave a viability, T/C [19] of 96.2%, a viability, T/C [20] of 91.2% and a viability, T/C [21] of 87.4%. The viability, T/C [22] was 100%, the viability, T/C [23] was 88.9% and the viability, T/C [24] was 88.1%. For the same compound, the viability, T/C [25] was 78.6%, the viability, T/C [26] was 77.7% and the viability, T/C [27] was 93.1%. For the same compound, the viability, T/C [28] was 88.3%, the viability, T/C [29] was 84.7% and the viability, T/C [30] was 77%. The viability, T/C [31] was 85.5%, the viability, T/C [32] was 83.6% and the viability, T/C [33] was 87.5%. For the same compound, the viability, T/C [34] was 84.9%, the viability, T/C [35] was 87% and the viability, T/C [36] was 78.5%.
`C=CC(=O)N1CCN(c2nc(=O)n(-c3c(C)ccnc3C(C)C)c3nc(-c4c(O)cccc4F)c(F)cc23)C(C)C1` (stereo unspecified) + Cc1[nH]c2ccc(F)cc2c1-c1nc2c3cccnc3c3ncccc3c2[nH]1 was tested, and the IC50 (second compound 0.0316 µM) was > 10 µM, the IC50 (second compound 0.1 µM) was > 10 µM and the IC50 (second compound 0.316 µM) was > 10 µM. The IC50 (second compound 1 µM) was > 10 µM, the IC50 (second compound 3.16 µM) was > 10 µM and the IC50 (second compound 10 µM) was > 10 µM. The viability, T/C [1] was 106%, the viability, T/C [2] was 92.6% and the viability, T/C [3] was 99.3%. The viability, T/C [4] was 103%, the viability, T/C [5] was 109% and the viability, T/C [6] was 101%. It also gave a viability, T/C [7] of 103%, a viability, T/C [8] of 95.5% and a viability, T/C [9] of 101%. The viability, T/C [10] was 95.4%, the viability, T/C [11] was 112% and the viability, T/C [12] was 96.5%. For the same compound, the viability, T/C [13] was 108%, the viability, T/C [14] was 95.1% and the viability, T/C [15] was 102%. The viability, T/C [16] was 103%, the viability, T/C [17] was 104% and the viability, T/C [18] was 97.8%. It also gave a viability, T/C [19] of 89.3%, a viability, T/C [20] of 103% and a viability, T/C [21] of 93.4%. For the same compound, the viability, T/C [22] was 93.8%, the viability, T/C [23] was 100% and the viability, T/C [24] was 88.7%. The viability, T/C [25] was 89.1%, the viability, T/C [26] was 90.5% and the viability, T/C [27] was 85.6%. It also gave a viability, T/C [28] of 92.4%, a viability, T/C [29] of 92.1% and a viability, T/C [30] of 80.2%. The viability, T/C [31] was 64.6%, the viability, T/C [32] was 73.1% and the viability, T/C [33] was 84%. It also gave a viability, T/C [34] of 76%, a viability, T/C [35] of 79.3% and a viability, T/C [36] of 80.3%.
